“And” between values parts separate entries of the source, which are not always exact repeats. Identical values can stand only once.
Tests used:
[1] = molecular target: anti-T4 antibody Fab fragment; experiment: Native MS (ESI FT-ICR) ligand competition with T2 as low-affinity reference ligand; type: binding, mouse; conditions: for binding affinity (in words): native MS
Protocol: All mass spectrometric experiments were performed by using a 12-T Bruker solariX XR Fourier transform ion cyclotron resonance (FT-ICR) instrument (Bruker Daltonics, Bremen, Germany) equipped with an electrospray ionization (ESI) source (Apollo-II). Mass spectra were obtained in a positive ion mode, and the samples were directly infused to the ion source at a flow rate of 2 μL min^–1. Dry nitrogen was used as nebulizing (4.0 L min^–1) and drying (80 °C, 1.0 bar) gas. The ions were accumulated in the hexapole ion trap for 3.5 s and then transferred to the dynamically harmonized ICR cell (Paracell) for trapping, excitation, and detection. The time of flight was set to 3.5 ms. All other instrumental parameters were carefully adjusted to preserve noncovalent interactions in the gas phase. […] The mass spectra were externally calibrated by the ESI Tuning mix (part no. G2431A; Agilent Technologies, Santa Clara, CA). The mass spectra were acquired from m/z 1500 to 5000. The data acquisition was attained by ftmsControl 2.1 software and further processed and analyzed by DataAnalysis 4.2 SR1 software. […]
To determine the binding affinities for the other ligands, ligand competition experiments were performed.[25],[26] Briefly, T2 was used as the “low-affinity” reference ligand, whose accurate Kd value was determined earlier by the direct ligand titration. The two ligands, competing for the same binding site in anti-T4 Fab, were mixed at the appropriate concentrations (determined earlier by initial screening experiments) with the protein at a fixed concentration of 0.1 μM. Ten replicates were measured for each ligand pair from three different samples.
A mathematical model to calculate Kd values from the competition experiments was as follows: For L and Lref, competing for a single binding site in P, the two equilibrium reactions are [drawing 2] [drawing 3] where P is the receptor protein, L is the ligand, and Lref is the “low-affinity” reference ligand. Briefly, the intensity ratio (R) of the total abundance of the ligand-bound protein (PL) and free protein (P) was calculated for each spectrum. The affinity measurement for the “low-affinity” ligand (Lref) was performed by a direct titration method. The individual Kd values for L and Lref are derived as [drawing 4] 2 [drawing 5] 3 where the brackets represent equilibrium concentrations of L, Lref, P, PL, and PLref. The mass balance equations at equilibrium are [drawing 6] 4 [drawing 7] 5 [drawing 8] 6 where [P]total, [L]total, and [Lref]total are the total protein, ligand, and reference ligand concentrations, respectively.
At equilibrium, [P] is the same for both ligands, and thus, eqs. […] were simplified to [drawing 9] 7
The ESI-MS spectrum directly provides normalized intensities (“concentration coefficients”) i(P), i(PL), and i(PLref), such that their sum equals 1, which can then be used to calculate equilibrium concentrations by eqs 8, 9, and 10: [drawing 10] 8 [drawing 11] 9 [drawing 12] 10 These calculations are valid if one assumes that the ionization and ion transmission efficiencies for P, PL, and PLref are the same (they are if mL ≈ mLref ≪ mP, which is true in this case), and there is no complex dissociation upon ionization/desolvation stages (i.e., careful adjustments of instrumental parameters). The intensities should be calculated as integrated sums of different charge states to avoid any bias resulting from different CSDs between the free and bound proteins. The free ligand concentrations, [L] and [Lref], can be obtained from eqs 5 and 6. The equilibrium concentrations [L], [Lref], [PL], and [PLref] as well as the predetermined/known Kd(Lref) can be inserted into eq 7 to calculate Kd(L).

[2] = molecular target: anti-T4 antibody Fab fragment; experiment: Native MS initial ligand screening (approximate affinities, stoichiometry); type: binding, mouse; conditions: 0.1 μM Fab; for approximate binding affinity: initial ligand screening
Protocol: All mass spectrometric experiments were performed by using a 12-T Bruker solariX XR Fourier transform ion cyclotron resonance (FT-ICR) instrument (Bruker Daltonics, Bremen, Germany) equipped with an electrospray ionization (ESI) source (Apollo-II). Mass spectra were obtained in a positive ion mode, and the samples were directly infused to the ion source at a flow rate of 2 μL min^–1. Dry nitrogen was used as nebulizing (4.0 L min^–1) and drying (80 °C, 1.0 bar) gas. The ions were accumulated in the hexapole ion trap for 3.5 s and then transferred to the dynamically harmonized ICR cell (Paracell) for trapping, excitation, and detection. The time of flight was set to 3.5 ms. All other instrumental parameters were carefully adjusted to preserve noncovalent interactions in the gas phase. […] The mass spectra were externally calibrated by the ESI Tuning mix (part no. G2431A; Agilent Technologies, Santa Clara, CA). The mass spectra were acquired from m/z 1500 to 5000. The data acquisition was attained by ftmsControl 2.1 software and further processed and analyzed by DataAnalysis 4.2 SR1 software. All native MS experiments were performed in 20 mM aqueous ammonium acetate (pH 6.9) solution.
First, the approximate binding affinities of thyroid hormones and tetrahalogen bisphenols to anti-T4 Fab were determined via initial screening experiments (Figures S1–S7).

[3] = molecular target: anti-T4 antibody Fab fragment; experiment: Native MS (ESI FT-ICR) direct ligand titration; type: binding, mouse; conditions: 0.005-2.0 μM T2, 0.1 μM Fab
Protocol: All mass spectrometric experiments were performed by using a 12-T Bruker solariX XR Fourier transform ion cyclotron resonance (FT-ICR) instrument (Bruker Daltonics, Bremen, Germany) equipped with an electrospray ionization (ESI) source (Apollo-II). Mass spectra were obtained in a positive ion mode, and the samples were directly infused to the ion source at a flow rate of 2 μL min^–1. Dry nitrogen was used as nebulizing (4.0 L min^–1) and drying (80 °C, 1.0 bar) gas. The ions were accumulated in the hexapole ion trap for 3.5 s and then transferred to the dynamically harmonized ICR cell (Paracell) for trapping, excitation, and detection. The time of flight was set to 3.5 ms. […] The data acquisition was attained by ftmsControl 2.1 software and further processed and analyzed by DataAnalysis 4.2 SR1 software. […]
A direct ligand titration[9],[22],[23] was used to determine the binding constant for the “low-affinity” reference ligand. […] The fractional saturation (Y) of the protein was calculated from the intensity ratio of the protein–ligand complex (PL) and free protein (P) for every single ligand (L) concentration (intensities averaged over different charge states), and the data were fitted into the specific, single-site binding model[24] […] Five replicate samples were prepared and measured for each T2 concentration. […]

[4] = test system: anti-T4 Fab; parameters: method as in PMID 9095353, PMID 9460543; conditions: SPR, cited from earlier work
[5] = molecular target: THRα1; parameters: method as in PMID 15466465; conditions: cited from earlier work
[6] = 0.1 μM Fab, 20 mM ammonium acetate pH 6.8, ligand and reference ligand (T2) concentrations per Table 1, mean ± SD, 10 replicates of three samples, read-out: Kd
[7] = T4/T2 0.14/0.5 μM, T3/T2 0.14/0.5 μM, T0/T2 15/0.05 μM, 0.1 μM Fab, read-out: Kd (self-validation at second ligand concentrations)

Kd [1, 6] | Kd [1, 7] | Compound | approximate binding affinity [2] | binding affinity (in words) ([1]; anti-T4 Fab) | further results
130000 nM | 174000 nM | N[C@@H](Cc1ccc(Oc2ccc(O)cc2)cc1)C(=O)O [T0, L-thyronine] | submicromolar to micromolar affinity range | – | binding affinity relative to T3 ([1]; anti-T4 Fab, native MS Kd values compared): approximately five orders of magnitude lower; Kd ([1]; competition with T2 as reference ligand, as given in the abstract, read-out: Kd): 130000 nM
– | – | N[C@@H](Cc1ccc(Oc2ccc(O)c(I)c2)c(I)c1)C(=O)O [T2, 3,3′-diiodo-L-thyronine] | submicrometer range | – | Kd ([3]; 20 mM ammonium acetate pH 6.8): 260 nM; Kd ([3]; 20 mM ammonium acetate pH 6.8, one-site binding fit, five replicates): 263 nM and 260 nM; binding ([4]; within the Kd range accessible by the technique): did not show any binding
29 nM | 23.9 nM | N[C@@H](Cc1cc(I)c(Oc2cc(I)c(O)c(I)c2)c(I)c1)C(=O)O [T4, L-thyroxine] | low nanomolar binding affinities | – | Kd [5]: 2 nM; affinity relative to T3 [4]: approximately 10 times
87 nM | – | CC(C)(c1cc(Br)c(O)c(Br)c1)c1cc(Br)c(O)c(Br)c1 [TBB, tetrabromobisphenol-A] | submicromolar to micromolar affinity range | nanomolar binding affinities | –

Compound | Kd [1, 6] | Kd [1, 7] | approximate binding affinity [2] | binding affinity (in words) ([1]; anti-T4 Fab) | further results
CC(C)(c1cc(Cl)c(O)c(Cl)c1)c1cc(Cl)c(O)c(Cl)c1 [TCB, tetrachlorobisphenol-A] | 7800 nM | – | submicromolar to micromolar affinity range | – | ligand saturation ([2]; ligand added until saturation): saturative binding was not observed even at a molar ligand excess of 200
CC(C)(c1cc(I)c(O)c(I)c1)c1cc(I)c(O)c(I)c1 [TIB, tetraiodobisphenol-A] | 11 nM | – | submicromolar to micromolar affinity range | nanomolar binding affinities | –

Source: PMC6854577, “Quantitation of Thyroid Hormone Binding to Anti-Thyroxine Antibody Fab Fragment by Native Mass Spectrometry” (ACS Omega, 2019)
